In PMC9460512, “A conserved sequence motif in the Escherichia coli soluble FAD-containing pyridine nucleotide transhydrogenase is important for reaction efficiency” (The Journal of Biological Chemistry, 2022):

Columns and labels:
[1] = target: T1, SthA (UdhA), soluble pyridine nucleotide transhydrogenase (Escherichia coli, UniProt P27306); experiment: thioNADPH formation rate at […] nm; assay type: biochemical; details: activator; 1.0 mM NADH, 0.15 mM thioNADP+, 50 mM Tris pH 7.5, 30 °C
[2] = target: T1, SthA (UdhA), soluble pyridine nucleotide transhydrogenase; experiment: absorbance spectrum of purified holoenzyme (A280/[…]); assay type: binding; details: bound prosthetic group copurified; 20 μM FAD in lysis buffer
[3] = target: SthA (UdhA), soluble pyridine nucleotide transhydrogenase (Escherichia coli, UniProt P27306, C45A); experiment: stopped-flow flavin reduction at […] nm, kobs vs NADH; assay type: biochemical; details: apparent; reductive half-reaction, anaerobic, 25 °C, no NADP+; 50 mM Tris pH 7.5
Sequence of SthA (UdhA), soluble pyridine nucleotide transhydrogenase (Escherichia coli, UniProt P27306, C45A) (P27306 2-466 C45A): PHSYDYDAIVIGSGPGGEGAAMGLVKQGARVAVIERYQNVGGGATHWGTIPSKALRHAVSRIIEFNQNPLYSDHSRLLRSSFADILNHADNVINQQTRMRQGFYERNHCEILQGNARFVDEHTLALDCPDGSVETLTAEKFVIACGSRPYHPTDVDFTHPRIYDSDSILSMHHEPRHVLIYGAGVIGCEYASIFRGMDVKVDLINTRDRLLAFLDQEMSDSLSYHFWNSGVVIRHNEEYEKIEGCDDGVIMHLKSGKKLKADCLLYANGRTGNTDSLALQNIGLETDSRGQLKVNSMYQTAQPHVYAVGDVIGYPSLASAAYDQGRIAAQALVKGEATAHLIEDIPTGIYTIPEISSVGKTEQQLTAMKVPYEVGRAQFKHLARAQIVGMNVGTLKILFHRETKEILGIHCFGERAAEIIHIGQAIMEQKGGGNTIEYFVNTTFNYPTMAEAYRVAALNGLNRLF

[4] = target: T1, SthA (UdhA), soluble pyridine nucleotide transhydrogenase; experiment: as above; assay type: biochemical; details: apparent; reductive half-reaction, anaerobic, 25 °C, no NADP+; 50 mM Tris pH 7.5
[5] = target: SthA (UdhA), soluble pyridine nucleotide transhydrogenase (Escherichia coli, UniProt P27306, T50C); experiment: as above; assay type: biochemical; details: apparent; reductive half-reaction, anaerobic, 25 °C, no NADP+; 50 mM Tris pH 7.5
Sequence of SthA (UdhA), soluble pyridine nucleotide transhydrogenase (Escherichia coli, UniProt P27306, T50C) (P27306 2-466 T50C): as the sequence (P27306 2-466 C45A) above, with A44C, T49C counted along it

[6] = target: T1, SthA (UdhA), soluble pyridine nucleotide transhydrogenase; experiment: thioNADPH formation at […] nm, substrate-inhibition fit; assay type: biochemical; details: 50 mM Tris pH 7.5, 30 °C
purified protein [7] = substrate: NC(=O)C1=CN([C@@H]2O[C@H](COP(=O)(O)OP(=O)(O)OC[C@H]3O[C@@H](n4cnc5c(N)ncnc54)[C@H](OP(=O)(O)O)[C@@H]3O)[C@@H](O)[C@H]2O)C=CC1; experiment: purified protein; assay type: biochemical, Escherichia coli; details: oxidase (uncoupling) reaction, 0.2 mM O2, no NAD(P)+, 50 mM Tris pH 7.5, 30 °C
purified protein [8] = substrate: NC(=S)c1ccc[n+]([C@@H]2O[C@H](COP(=O)(O)OP(=O)(O)OC[C@H]3O[C@@H](n4cnc5c(N)ncnc54)[C@H](OP(=O)(O)O)[C@@H]3O)[C@@H](O)[C@H]2O)c1; experiment: purified protein; assay type: biochemical, Escherichia coli; details: transhydrogenase reaction, 10.0 mM NADH, 50 mM Tris pH 7.5, 30 °C
[9] = target: the molecule itself; experiment: dynamic light scattering; purified SthA (>1 mg/ml) in a microcuvette, DynaPro Nanostar, 20 °C, three independent purification batches; oligomer size from the hydrodynamic radius

Nc1ncnc2c1ncn2[C@@H]1O[C@H](COP(=O)(O)OP(=O)(O)O)[C@@H](O)[C@H]1O [ADP]
% activity at 5.0 mM [1]: ADP was the best reaction activator, followed by AMP and ATP, respectively.

Nc1ncnc2c1ncn2[C@@H]1O[C@H](COP(=O)(O)O)[C@@H](O)[C@H]1O [AMP]
% activity at 5.0 mM [1]: all three adenine nucleotides increased the rate of thioNADPH formation

Nc1ncnc2c1ncn2[C@@H]1O[C@H](COP(=O)(O)OP(=O)(O)OP(=O)(O)O)[C@@H](O)[C@H]1O [ATP]
% activity at 5.0 mM [1]: all three adenine nucleotides increased the rate of thioNADPH formation

Cc1cc2nc3c(=O)[nH]c(=O)nc-3n(C[C@H](O)[C@H](O)[C@H](O)COP(=O)(O)OP(=O)(O)OC[C@H]3O[C@@H](n4cnc5c(N)ncnc54)[C@H](O)[C@@H]3O)c2cc1C [FAD]
absorbance spectrum of purified holoenzyme (A280/450) [2]: absorbance spectrum of the purified protein indicated the presence of bound oxidized FAD

NC(=O)C1=CN([C@@H]2O[C@H](COP(=O)(O)OP(=O)(O)OC[C@H]3O[C@@H](n4cnc5c(N)ncnc54)[C@H](O)[C@@H]3O)[C@@H](O)[C@H]2O)C=CC1 [NADH]
Kd [3]: 300 ± 100 µM | Kd [4]: 88 ± 27 µM | Kd [5]: 227 ± 61 µM | KI ([6]; 0.5 mM thioNADP+): 12.1 ± 2.0 mM

NC(=S)c1ccc[n+]([C@@H]2O[C@H](COP(=O)(O)OP(=O)(O)OC[C@H]3O[C@@H](n4cnc5c(N)ncnc54)[C@H](OP(=O)(O)O)[C@@H]3O)[C@@H](O)[C@H]2O)c1 [thioNADP+]
KI ([6]; 10.0 mM NADH): 0.59 ± 0.26 mM

B1: SthA (UdhA), soluble pyridine nucleotide transhydrogenase (Escherichia coli K-12) (protein)
chain: PHSYDYDAIVIGSGPGGEGAAMGLVKQGARVAVIERYQNVGGGCTHWGTIPSKALRHAVSRIIEFNQNPLYSDHSRLLRSSFADILNHADNVINQQTRMRQGFYERNHCEILQGNARFVDEHTLALDCPDGSVETLTAEKFVIACGSRPYHPTDVDFTHPRIYDSDSILSMHHEPRHVLIYGAGVIGCEYASIFRGMDVKVDLINTRDRLLAFLDQEMSDSLSYHFWNSGVVIRHNEEYEKIEGCDDGVIMHLKSGKKLKADCLLYANGRTGNTDSLALQNIGLETDSRGQLKVNSMYQTAQPHVYAVGDVIGYPSLASAAYDQGRIAAQALVKGEATAHLIEDIPTGIYTIPEISSVGKTEQQLTAMKVPYEVGRAQFKHLARAQIVGMNVGTLKILFHRETKEILGIHCFGERAAEIIHIGQAIMEQKGGGNTIEYFVNTTFNYPTMAEAYRVAALNGLNRLF
Km (purified protein [7]): 91.8 ± 30.5 µM | kcat (purified protein [7]): 0.2 ± 0.03 s⁻¹ | kcat/Km (purified protein [7]): 2200 M⁻¹ s⁻¹ | Km (purified protein [8]): 0.12 ± 0.04 mM | kcat (purified protein [8]): 15.3 ± 3.1 s⁻¹ | kcat/Km (purified protein [8]): 128000 M⁻¹ s⁻¹

B2: soluble pyridine nucleotide transhydrogenase SthA from Escherichia coli K-12 (enzyme, E. coli K-12, UniProt P27306 1-466, looked up)
chain: MPHSYDYDAIVIGSGPGGEGAAMGLVKQGARVAVIERYQNVGGGCTHWGTIPSKALRHAVSRIIEFNQNPLYSDHSRLLRSSFADILNHADNVINQQTRMRQGFYERNHCEILQGNARFVDEHTLALDCPDGSVETLTAEKFVIACGSRPYHPTDVDFTHPRIYDSDSILSMHHEPRHVLIYGAGVIGCEYASIFRGMDVKVDLINTRDRLLAFLDQEMSDSLSYHFWNSGVVIRHNEEYEKIEGCDDGVIMHLKSGKKLKADCLLYANGRTGNTDSLALQNIGLETDSRGQLKVNSMYQTAQPHVYAVGDVIGYPSLASAAYDQGRIAAQALVKGEATAHLIEDIPTGIYTIPEISSVGKTEQQLTAMKVPYEVGRAQFKHLARAQIVGMNVGTLKILFHRETKEILGIHCFGERAAEIIHIGQAIMEQKGGGNTIEYFVNTTFNYPTMAEAYRVAALNGLNRLF
notes: Soluble pyridine nucleotide transhydrogenase SthA (UdhA) of E. coli K-12; protomer with a calculated molar mass of around 54 kDa; No removal of the His tag is described; also called UdhA; soluble transhydrogenase
stoichiometry N [9]: 8
